Marks after values point to notes of the source that are not given here.
Columns and labels:
[1] = tested on: streptozotocin-induced diabetic rat; assay: sensory neuropathy in streptozotocin-induced diabetes: hot plate and tail flick; format: in vivo; conditions: lesioned animals treated for 6 weeks at 10 mg/kg s.c., treatment started six weeks after streptozotocin
Protocol: The procedure involved using Male Wistar rats which were given a single injection of streptozotocin (65 mg/kg i.v.). Blood glucose levels were determined weekly for the first three weeks and on the last week of the experiment. Animals were evaluated weekly for signs of sensory neuropathy using the conventional hot plate and tail flick apparatus test procedures.

[2] = tested on: retinal ganglion cells and optic nerve; assay: retinal ischemia: degeneration of retinal ganglion cells, optic nerve axons and myelin; format: in vivo, rat
Excerpt: Retinal ganglion cells were retrogradely labeled in adult rats by bilateral injection of fluorogold in their lateral geniculate nuclei. Labeled ganglion cells in the normal rat retina appear as white profiles against the dark background (FIG. 1A). Complete retinal ischemia was produced by infusing normal saline solution into the retinal vitreous cavity of each eye until the intraocular pressure exceeded arterial blood pressure. 28 days after the ischemic episode extensive degeneration of retinal ganglion cell was evidenced by massive reduction in the density of fluorogold labeled cells (FIG. 1B).

aged mice = assay: Morris watermaze spatial learning and memory in aged rodents; format: in vivo, mouse; conditions: aged impaired C57BL/6N-Nia mice, 10 mg/kg daily, retention testing after 3 weeks of dosing
Excerpt: The Morris watermaze is widely used for assessing spatial memory formation and retention in experimental animals. The test depends on the animal's ability to utilize spatial visual information in order to locate a submerged escape platform in a water tank. It is important that the tank itself be as devoid of specific visual features as possible-thus, it is always circular in shape, the sides are kept smooth and in uniform dull colors, and the water is rendered opaque with nontoxic watercolor pigment or powdered milk. This is to ensure that the animal navigates only by the use of more distant visual cues, or by the use of intra-maze cues specifically provided by the experimenter. The tank is filled to a level which forces the animal to swim actively. Normal mice and rats react […] to the swimming part of the test and will climb onto, and remain on, an escape platform from which they are removed to a heated resting cage. If the platform is visible (i.e. above the surface), animals placed in the tank will quickly learn to home in on the platform and climb out onto it. […] Swim Distances (cm) were analyzed in a 7×5 ANOVA including Groups and Blocks (1-5) as factors in the analysis, treating Blocks as a repeated measure.

[3] = tested on: retinal ganglion cell axons; assay: protection of retinal ganglion cell axons from degeneration 14 days after optic nerve transection (RT97); format: in vivo; conditions: ± SEM
Excerpt: Efficacy of represetative compounds from different immunophilin ligand series in protecting retinal ganglion cell axons from degeneration following optic nerve transection set forth in Table 9.
Efficacy of representative compounds from different immunophilin ligand series in protecting retinal ganglion cell axons from degeneration following optic nerve transection

retina = assay: streptozotocin induced diabetes: retinal neovascularization and neuronal loss; format: in vivo; conditions: 28 day treatment beginning 8 weeks after onset of streptozotocin induced diabetes
Clearance = format: in vitro ADME; conditions: Table 9 comments
[4] = tested on: retinal ganglion cells and optic nerve axons; assay: optic nerve transection: retinal ganglion cell survival, optic nerve axon preservation and myelination 90 days after transection; format: in vivo, rat; conditions: for RGC Counts: mean density + SEM of Fluoro-gold labeled RGC in 400 μm × 400 μm gridfields; for ON Axon density: RT97 labeled axons in 200 μm × 200 μm region, mean + SEM; for Proximal optic nerve myelin basic protein Density: % areal coverage of optic nerve cross section, ± SEM; for increased ON axon density: adjusted for optic nerve diameter; for ON axon Count: calculated by multiplying axonal density by ON area; for Distal optic nerve myelin basic protein Density (myelin level): cross sectional area multiplied by myelin density
Excerpt: All eyes and optic nerves stumps were removed.

[5] = 28 days after 1 hour retinal ischemic episode, toluidine blue staining
[6] = ONT/14 days GPI 1046, 90 days after transection
[7] = ONT/28 days GPI 1046, 90 days after transection

SMILES: CCC(C)(C)C(=O)C(=O)N1CCC[C@H]1C(=O)OCCCc1cccnc1 [GPI 1046, 3-(3-pyridyl)-1-propyl (2s)-1-(3,3-dimethyl-1,2-dioxopentyl)-2-pyrrolidinecarboxylate]
- latency in hot plate and tail flick tests [1]: improvement in latency
- protection of retinal ganglion cells (density of fluorogold labeled cells) ([2]; 10 mg/kg s.c. 1 hour prior to ischemic episode and 10 mg/kg/day for next four days, 28 days after ischemia): noticeable protection of a large proportion of the vulnerable ganglion cell population
- density of degenerating myelin figures [2, 5]: dramatically decreased the density of degenerating myelin figures
- protection of optic nerve axons from ischemic degeneration [2, 5]: protected the majority of optic nerve axons from degeneration
- spatial memory performance (swim distance), retention testing (aged mice): significantly enhanced spatial memory performance
- RT 97 + RGC axon density 14 days after ON transaction (36 ON axons rescued) [3]: 60.5% ±3.9 SEM
- neovascularization in the PR, ONL, OPL and INL (retina): reduced neovascularization
- neuronal loss in the ONL (retina): did not appear to protect against neuronal loss in the ONL
- loss of neurons in the INL and GCL (retina; vs streptozotocin/vehicle): appeared to decrease the loss of neurons in both the INL and GCL
- Clearance (Clearance): 63.8 µL/min
- preservation of axons of protected neurons in the proximal stump ([4]; Example 16: 10 mg/kg/day s.c. for 28 days, 90 days after transection, RT97): preserved the axons of virtually all protected neurons
- ganglion cell population spared (perikaryal neuroprotection) ([4]; Example 16: 10 mg/kg/day s.c. for 28 days, sacrificed 90 days after transection): 25%
- protection of optic nerve axons ([4]; GPI 1046 for the first 14 days after optic nerve transection, proximal stump, 90 days): 5.3%
- RGC Counts ([4]; ONT/14 days GPI 1046, 10 mg/kg/day sc, 90 days after transection): small but not significant increase
- % RGCs Rescued [4, 6]: 5.3%
- % surviving RGCs with ON axons [4, 6]: 33.6%
- Distal optic nerve stump shrinkage (cross sectional area vs sham) [4, 6]: did not protect against shrinkage of the distal stump
- ON head area (% sham) [4, 6]: 76% sham
- Spared RGC population [4, 6]: 20,275
- ON Axon density [4, 6]: 569 ± 23
- Proximal optic nerve myelin basic protein Density ([4]; ONT/14 days GPI 1046): 1.6 ± 3.0 SEM % recovery
- increased ON axon density ([4]; ONT/14 days GPI 1046): 1.5×
- ON axon Count ([4]; ONT/14 days GPI 1046): 6820
- Distal optic nerve myelin basic protein Density (myelin level) ([4]; ONT/14 days GPI 1046): slightly increase the density of myelin
- RGC Counts ([4]; ONT/28 days GPI 1046, 10 mg/kg/day sc, 90 days after transection): 67.9 + 5.8*
- % surviving RGCs with ON axons [4, 7]: 81.4%
- Distal optic nerve stump shrinkage (cross sectional area vs sham) [4, 7]: prevented cross sectional shrinkage of the distal stump
- ON head area (% sham) [4, 7]: 95%* % sham
- Spared RGC population [4, 7]: 28,096*
- ON Axon density [4, 7]: significant increase in the density of large, and particularly medium and small caliber optic nerve axons
- Proximal optic nerve myelin basic protein Density ([4]; ONT/28 days GPI 1046): 70 ± 6.3 SEM % recovery
- increased ON axon density ([4]; ONT/28 days GPI 1046): 5.0×
- ON axon Count ([4]; ONT/28 days GPI 1046): 22,861*
- Distal optic nerve myelin basic protein Density (myelin level) ([4]; ONT/28 days GPI 1046): 99% myelin % myelin preservation
